{
  "source": "paper PMC5218480",
  "about": "(PLoS ONE, 2017)",
  "system": "MV-4-11 cells",
  "assay": "Gene expression microarray analysis (Affymetrix PrimeView) and GSEA",
  "format": "cell-based, human",
  "parameters": "RFU PODN (11730768_x_at) / Fold change /veh PODN (11730768_x_at) / RFU LINC00158 (11744669_a_at) / Fold change /veh LINC00158 (11744669_a_at) / RFU DUSP10 (11751237_a_at) / Fold change /veh DUSP10 (11751237_a_at) / RFU ID3 (11757404_x_at) / Fold change /veh ID3 (11757404_x_at) / RFU PLEKHG5 (11737974_s_at) / Fold change /veh PLEKHG5 (11737974_s_at) / RFU LRRC4B (11730491_at) / Fold change /veh LRRC4B (11730491_at) / RFU GIMAP4 (11747438_a_at) / Fold change /veh GIMAP4 (11747438_a_at) / RFU KRT8 (11758183_x_at) / Fold change /veh KRT8 (11758183_x_at) / RFU CNN1 (11734310_a_at) / Fold change /veh CNN1 (11734310_a_at) / RFU VPS37D (11726825_at) / Fold change /veh VPS37D (11726825_at) / RFU C10orf10 (11716522_x_at) / Fold change /veh C10orf10 (11716522_x_at) / RFU KIR2DL2 /// KIR2DL4 /// KIR2DL5A /// KIR2DL5B /// KIR2DS1 /// KIR2DS2 /// KIR2DS3 /// KIR2DS4 /// KIR3DL3 /// KIR3DL3 /// KIR3DS1 (11738374_at) / Fold change /veh KIR2DL2 /// KIR2DL4 /// KIR2DL5A /// KIR2DL5B /// KIR2DS1 /// KIR2DS2 /// KIR2DS3 /// KIR2DS4 /// KIR3DL3 /// KIR3DL3 /// KIR3DS1 (11738374_at) / RFU C1QL1 (11718748_at) / Fold change /veh C1QL1 (11718748_at) / RFU TMPRSS4 (11747572_a_at) / Fold change /veh TMPRSS4 (11747572_a_at) / RFU HAMP (11756126_x_at) / Fold change /veh HAMP (11756126_x_at) / RFU RNFT2 (11725882_a_at) / Fold change /veh RNFT2 (11725882_a_at) / RFU NR4A2 (11747474_a_at) / Fold change /veh NR4A2 (11747474_a_at) / RFU ABCC12 (11746883_a_at) / Fold change /veh ABCC12 (11746883_a_at) / RFU TMEM136 (11760407_x_at) / Fold change /veh TMEM136 (11760407_x_at) / RFU CLDN22 /// WWC2 (11732394_at) / Fold change /veh CLDN22 /// WWC2 (11732394_at) / RFU HLA-DPB1 (11760878_x_at) / Fold change /veh HLA-DPB1 (11760878_x_at) / RFU SPINT1 (11716480_a_at) / Fold change /veh SPINT1 (11716480_a_at) / RFU GAP43 (11754022_s_at) / Fold change /veh GAP43 (11754022_s_at) / RFU A4GNT (11735810_at) / Fold change /veh A4GNT (11735810_at) / RFU PRB3 (11715151_x_at) / Fold change /veh PRB3 (11715151_x_at) / RFU TUBB4B (11761932_at) / Fold change /veh TUBB4B (11761932_at) / RFU CAPN14 (11732068_a_at) / Fold change /veh CAPN14 (11732068_a_at) / RFU TMCC2 (11721928_a_at) / Fold change /veh TMCC2 (11721928_a_at) / RFU IRGQ (11745062_a_at) / Fold change /veh IRGQ (11745062_a_at) / RFU FAM174B (11720279_a_at) / Fold change /veh FAM174B (11720279_a_at) / RFU TMPRSS4 (11748680_a_at) / Fold change /veh TMPRSS4 (11748680_a_at) / RFU FAM212B (11763350_a_at) / Fold change /veh FAM212B (11763350_a_at) / RFU PLEKHG5 (11743358_a_at) / Fold change /veh PLEKHG5 (11743358_a_at) / RFU ZSCAN30 (11745921_a_at) / Fold change /veh ZSCAN30 (11745921_a_at) / RFU CMKLR1 (11741424_a_at) / Fold change /veh CMKLR1 (11741424_a_at) / RFU LOC101060620 /// MAPK8IP1 (11723275_at) / Fold change /veh LOC101060620 /// MAPK8IP1 (11723275_at) / RFU SPTSSB (11747773_x_at) / Fold change /veh SPTSSB (11747773_x_at) / RFU PRSS12 (11739890_at) / Fold change /veh PRSS12 (11739890_at) / RFU BIN1 (11741810_x_at) / Fold change /veh BIN1 (11741810_x_at) / RFU WNT11 (11732464_a_at) / Fold change /veh WNT11 (11732464_a_at) / RFU C10orf10 (11716521_a_at) / Fold change /veh C10orf10 (11716521_a_at) / RFU C5orf56 (11738089_at) / Fold change /veh C5orf56 (11738089_at) / RFU CYB561 (11721691_x_at) / Fold change /veh CYB561 (11721691_x_at) / RFU ANKRD19P (11752326_a_at) / Fold change /veh ANKRD19P (11752326_a_at) / RFU OR2T12 /// OR2T33 /// OR2T8 (11738714_s_at) / Fold change /veh OR2T12 /// OR2T33 /// OR2T8 (11738714_s_at) / RFU VCAN (11748164_a_at) / Fold change /veh VCAN (11748164_a_at) / RFU JSRP1 (11732532_at) / Fold change /veh JSRP1 (11732532_at) / RFU KRTAP10-11 (11738290_x_at) / Fold change /veh KRTAP10-11 (11738290_x_at) / RFU MYO3A (11730013_a_at) / Fold change /veh MYO3A (11730013_a_at) / RFU EBF3 (11725865_a_at) / Fold change /veh EBF3 (11725865_a_at) / RFU CAMK2N1 (11719241_x_at) / Fold change /veh CAMK2N1 (11719241_x_at) / RFU C5orf56 (11738088_a_at) / Fold change /veh C5orf56 (11738088_a_at) / RFU OLFML3 (11715873_a_at) / Fold change /veh OLFML3 (11715873_a_at) / RFU LOC100653217 /// NTM (11731650_a_at) / Fold change /veh LOC100653217 /// NTM (11731650_a_at) / RFU MAPK11 (11762145_a_at) / Fold change /veh MAPK11 (11762145_a_at) / RFU FIZ1 (11724087_x_at) / Fold change /veh FIZ1 (11724087_x_at) / RFU OASL (11726364_x_at) / Fold change /veh OASL (11726364_x_at) / RFU SOX15 (11748057_x_at) / Fold change /veh SOX15 (11748057_x_at) / RFU CD79A (11719716_a_at) / Fold change /veh CD79A (11719716_a_at) / RFU HIST1H1D (11736915_at) / Fold change /veh HIST1H1D (11736915_at) / RFU CASKIN2 (11723855_a_at) / Fold change /veh CASKIN2 (11723855_a_at) / RFU LOC730098 (11760151_x_at) / Fold change /veh LOC730098 (11760151_x_at) / RFU OR4N2 (11742367_at) / Fold change /veh OR4N2 (11742367_at) / RFU PRRT2 (11749266_a_at) / Fold change /veh PRRT2 (11749266_a_at) / RFU SNX32 (11753110_a_at) / Fold change /veh SNX32 (11753110_a_at) / RFU CDHR5 (11726645_a_at) / Fold change /veh CDHR5 (11726645_a_at) / RFU RCAN1 (11760418_a_at) / Fold change /veh RCAN1 (11760418_a_at) / RFU FAM167A (11723789_a_at) / Fold change /veh FAM167A (11723789_a_at) / RFU FAM26E (11764081_at) / Fold change /veh FAM26E (11764081_at) / RFU ISYNA1 (11749810_s_at) / Fold change /veh ISYNA1 (11749810_s_at) / RFU ACY1 (11761880_at) / Fold change /veh ACY1 (11761880_at) / RFU 11764098_at / Fold change /veh 11764098_at / RFU SAMD14 (11745864_x_at) / Fold change /veh SAMD14 (11745864_x_at) / RFU NPB (11741838_a_at) / Fold change /veh NPB (11741838_a_at) / RFU TMPRSS6 (11731388_a_at) / Fold change /veh TMPRSS6 (11731388_a_at) / RFU KRTAP10-2 (11738614_at) / Fold change /veh KRTAP10-2 (11738614_at) / RFU ARHGAP8 /// PRR5-ARHGAP8 (11727945_x_at) / Fold change /veh ARHGAP8 /// PRR5-ARHGAP8 (11727945_x_at) / RFU KRTAP5-7 /// NADSYN1 (11734609_at) / Fold change /veh KRTAP5-7 /// NADSYN1 (11734609_at) / RFU RASL12 (11751679_a_at) / Fold change /veh RASL12 (11751679_a_at) / RFU CDKN2B (11736163_a_at) / Fold change /veh CDKN2B (11736163_a_at) / RFU PRF1 (11729649_at) / Fold change /veh PRF1 (11729649_at) / RFU, ZNF638 /// ZNF638-IT1 / Fold change vs veh, ZNF638 /// ZNF638-IT1 / RFU, PANK3 / Fold change vs veh, PANK3 / RFU, SH3YL1 / Fold change vs veh, SH3YL1 / RFU, ZEB2 / Fold change vs veh, ZEB2 / RFU, NRIP1 / Fold change vs veh, NRIP1 / RFU, PTTG1IP / Fold change vs veh, PTTG1IP / RFU, CAPN2 / Fold change vs veh, CAPN2 / RFU, MED14 / Fold change vs veh, MED14 / RFU, SNORA58 / Fold change vs veh, SNORA58 / RFU, C1orf63 / Fold change vs veh, C1orf63 / RFU, LRRFIP1 / Fold change vs veh, LRRFIP1 / RFU, NDUFAF7 / Fold change vs veh, NDUFAF7 / RFU, SLC12A2 / Fold change vs veh, SLC12A2 / RFU, IBTK / Fold change vs veh, IBTK / RFU, ESF1 / Fold change vs veh, ESF1 / Fold change vs veh, TMEM50B / RFU, TAOK1 / Fold change vs veh, TAOK1 / RFU, ACBD3 / Fold change vs veh, ACBD3 / RFU, TMA16 / Fold change vs veh, TMA16 / RFU, RWDD3 / Fold change vs veh, RWDD3 / RFU, BCAT1 / Fold change vs veh, BCAT1 / RFU, EDEM3 / Fold change vs veh, EDEM3 / RFU, TMEM33 / Fold change vs veh, TMEM33 / RFU, WDR75 / Fold change vs veh, WDR75 / RFU, AHCTF1 / Fold change vs veh, AHCTF1 / RFU, TFRC / Fold change vs veh, TFRC / RFU, ZDHHC17 / Fold change vs veh, ZDHHC17 / RFU, NOM1 / Fold change vs veh, NOM1 / RFU, ARL8B / Fold change vs veh, ARL8B / RFU, ZBTB11 / Fold change vs veh, ZBTB11 / RFU, TAMM41 / Fold change vs veh, TAMM41 / RFU, KIAA1704 /// LOC100996395 / Fold change vs veh, KIAA1704 /// LOC100996395 / RFU, ING1 / Fold change vs veh, ING1 / RFU, TRMT61B / Fold change vs veh, TRMT61B / RFU, FUBP3 / Fold change vs veh, FUBP3 / RFU, TP53 / Fold change vs veh, TP53 / RFU, TNKS2 / Fold change vs veh, TNKS2 / RFU, ZFP14 / Fold change vs veh, ZFP14 / RFU, ACTR2 / Fold change vs veh, ACTR2 / RFU, PPP3R1 / Fold change vs veh, PPP3R1 / RFU, PIK3R1 / Fold change vs veh, PIK3R1 / RFU, HNRNPA1 / Fold change vs veh, HNRNPA1 / RFU, RNF170 / Fold change vs veh, RNF170 / RFU, ZNF28 / Fold change vs veh, ZNF28 / RFU, RNGTT / Fold change vs veh, RNGTT / RFU, OGT / Fold change vs veh, OGT / RFU, BRD1 / Fold change vs veh, BRD1 / RFU, MARS / Fold change vs veh, MARS / RFU, ZNF655 / Fold change vs veh, ZNF655 / RFU, FAHD1 / Fold change vs veh, FAHD1 / RFU, BDP1 / Fold change vs veh, BDP1 / RFU, LRRCC1 / Fold change vs veh, LRRCC1 / RFU, ARID1A / Fold change vs veh, ARID1A / RFU, ZNF146 / Fold change vs veh, ZNF146 / RFU, ZNF330 / Fold change vs veh, ZNF330 / RFU, GPN3 / Fold change vs veh, GPN3 / RFU, C9orf123 / Fold change vs veh, C9orf123 / RFU, N4BP2L2 / Fold change vs veh, N4BP2L2 / RFU, ARFIP1 / Fold change vs veh, ARFIP1 / RFU, FAM179B / Fold change vs veh, FAM179B / RFU, BCL10 / Fold change vs veh, BCL10 / RFU, UHRF1BP1L / Fold change vs veh, UHRF1BP1L / RFU, BET1 / Fold change vs veh, BET1 / RFU, CNOT2 / Fold change vs veh, CNOT2 / RFU, ZNF268 / Fold change vs veh, ZNF268 / Fold change vs veh, ZNF507 / RFU, DGCR2 / Fold change vs veh, DGCR2 / RFU, WDSUB1 / Fold change vs veh, WDSUB1 / Fold change vs veh, HSP90B1 /// MIR3652 / RFU, ADSS / Fold change vs veh, ADSS / RFU, GK / Fold change vs veh, GK / RFU, ZNF148 / Fold change vs veh, ZNF148 / RFU, TAF9 / Fold change vs veh, TAF9 / RFU, SLC1A5 / Fold change vs veh, SLC1A5 / RFU, SLMO2 / Fold change vs veh, SLMO2 / RFU, ABCC4 / Fold change vs veh, ABCC4 / RFU, LOC101060439 /// RAP1B / Fold change vs veh, LOC101060439 /// RAP1B / RFU, RFX7 / Fold change vs veh, RFX7 / RFU, GTPBP10 / Fold change vs veh, GTPBP10 / RFU, CNEP1R1 / Fold change vs veh, CNEP1R1 / RFU, BIVM-ERCC5 /// ERCC5 / Fold change vs veh, BIVM-ERCC5 /// ERCC5 / RFU, ILF3 / Fold change vs veh, ILF3 / RFU 11762660_at / Fold change /veh 11762660_at / RFU VCAN (11757783_s_at) / Fold change /veh VCAN (11757783_s_at) / RFU DDX43 (11728927_at) / Fold change /veh DDX43 (11728927_at) / RFU KRT8 (11758188_x_at) / Fold change /veh KRT8 (11758188_x_at) / RFU NKD1 (11759106_at) / Fold change /veh NKD1 (11759106_at) / RFU SRD5A1 (11742802_a_at) / Fold change /veh SRD5A1 (11742802_a_at) / RFU TPSAB1 /// TPSB2 (11721975_s_at) / Fold change /veh TPSAB1 /// TPSB2 (11721975_s_at) / RFU GSTM3 (11746129_a_at) / Fold change /veh GSTM3 (11746129_a_at) / RFU IL23R (11737362_x_at) / Fold change /veh IL23R (11737362_x_at) / RFU TMEM51 (11727254_a_at) / Fold change /veh TMEM51 (11727254_a_at) / RFU PIWIL2 (11732686_x_at) / Fold change /veh PIWIL2 (11732686_x_at) / RFU ORM1 (11744905_x_at) / Fold change /veh ORM1 (11744905_x_at) / RFU CCDC152 (11743942_at) / Fold change /veh CCDC152 (11743942_at) / RFU ECM1 (11717891_a_at) / Fold change /veh ECM1 (11717891_a_at) / RFU IL23R (11748794_a_at) / Fold change /veh IL23R (11748794_a_at) / RFU TNFAIP8L3 (11732012_x_at) / Fold change /veh TNFAIP8L3 (11732012_x_at) / RFU MBOAT4 (11741988_at) / Fold change /veh MBOAT4 (11741988_at) / RFU 11764193_at / Fold change /veh 11764193_at / RFU TMEM53 (11763286_at) / Fold change /veh TMEM53 (11763286_at) / RFU MAGEB2 (11727129_at) / Fold change /veh MAGEB2 (11727129_at) / RFU TMEM200A (11744735_a_at) / Fold change /veh TMEM200A (11744735_a_at) / RFU CCDC152 (11751479_a_at) / Fold change /veh CCDC152 (11751479_a_at) / RFU FAM211A (11726209_a_at) / Fold change /veh FAM211A (11726209_a_at) / RFU RGS16 (11746705_a_at) / Fold change /veh RGS16 (11746705_a_at) / RFU VCAN (11755009_s_at) / Fold change /veh VCAN (11755009_s_at) / RFU RHOB (11743442_s_at) / Fold change /veh RHOB (11743442_s_at) / RFU RGS16 (11720943_a_at) / Fold change /veh RGS16 (11720943_a_at) / RFU RGS16 (11720944_at) / Fold change /veh RGS16 (11720944_at) / RFU, VPS4B / Fold change vs veh, VPS4B / RFU, CREB1 / Fold change vs veh, CREB1 / RFU, DNAJC13 / Fold change vs veh, DNAJC13 / RFU, GNAQ / Fold change vs veh, GNAQ / RFU, CDK5R1 / Fold change vs veh, CDK5R1 / RFU, ZRANB3 / Fold change vs veh, ZRANB3 / RFU, CUL4A / Fold change vs veh, CUL4A / RFU, CCNY / Fold change vs veh, CCNY / RFU, UFL1 / Fold change vs veh, UFL1 / RFU, COG3 / Fold change vs veh, COG3 / RFU, DIAPH2 / Fold change vs veh, DIAPH2 / RFU, SKA2 / Fold change vs veh, SKA2 / RFU, AFF3 / Fold change vs veh, AFF3 / RFU, LMF1 / Fold change vs veh, LMF1 / RFU, IPO11 / Fold change vs veh, IPO11 / RFU, DFFB / Fold change vs veh, DFFB / RFU, FOXP1 / Fold change vs veh, FOXP1 / RFU, CARD8 / Fold change vs veh, CARD8 / RFU, STRN3 / Fold change vs veh, STRN3 / RFU, ADK / Fold change vs veh, ADK / RFU, RASSF2 / Fold change vs veh, RASSF2 / RFU, WIPF1 / Fold change vs veh, WIPF1 / RFU, LARP1B / Fold change vs veh, LARP1B / RFU, RASA1 / Fold change vs veh, RASA1 / RFU, RB1 / Fold change vs veh, RB1 / RFU, PPFIA1 / Fold change vs veh, PPFIA1 / RFU, MAT2A / Fold change vs veh, MAT2A / RFU, CCT5 / Fold change vs veh, CCT5 / RFU, WDR92 / Fold change vs veh, WDR92 / RFU, CUX1 / Fold change vs veh, CUX1 / RFU, TTC7A / Fold change vs veh, TTC7A / RFU, TMEM135 / Fold change vs veh, TMEM135 / RFU, DEPTOR / Fold change vs veh, DEPTOR / RFU, CPM / Fold change vs veh, CPM / RFU, DNAJB6 / Fold change vs veh, DNAJB6 / RFU, CACNA2D3 / Fold change vs veh, CACNA2D3 / RFU, DTX4 / Fold change vs veh, DTX4 / RFU, TFCP2 / Fold change vs veh, TFCP2 / RFU, GMCL1 /// GMCL1P1 / Fold change vs veh, GMCL1 /// GMCL1P1 / RFU, AEBP2 / Fold change vs veh, AEBP2 / RFU, SNHG1 /// SNORD22 /// SNORD25 /// SNORD26 /// SNORD27 /// SNORD28 /// SNORD29 /// SNORD31 / Fold change vs veh, SNHG1 /// SNORD22 /// SNORD25 /// SNORD26 /// SNORD27 /// SNORD28 /// SNORD29 /// SNORD31 / Fold change (Aza/veh), C12orf56 (ProbeSet 11735607_a_at) / Fold change (ACY-1035/veh), C12orf56 (ProbeSet 11735607_a_at) / Fold change (Aza/veh), FGFR1OP (ProbeSet 11751329_s_at) / Fold change (ACY-1035/veh), FGFR1OP (ProbeSet 11751329_s_at) / Fold change (Aza/veh), VPS36 (ProbeSet 11739960_a_at) / Fold change (ACY-1035/veh), VPS36 (ProbeSet 11739960_a_at) / RFU SYPL1 (11715823_x_at) / Fold change /veh SYPL1 (11715823_x_at) / RFU IGFBP7 (11715501_s_at) / Fold change /veh IGFBP7 (11715501_s_at) / RFU REEP3 (11722064_at) / Fold change /veh REEP3 (11722064_at) / RFU IGLL1 (11728026_x_at) / Fold change /veh IGLL1 (11728026_x_at): dose or concentration left out as unconfirmed",
  "details": "ProbeSet 11732281_s_at; LIST D",
  "data": [
    {"smiles": "Nc1ncn([C@@H]2O[C@H](CO)[C@@H](O)[C@H]2O)c(=O)n1", "note": "[azacitidine]", "values": [
      {"measurement": "Fold change vs veh, FOXP1", "value": 0.63}
    ]}
  ]
}
